As a reminder, the inhibition is the change of the read-out against control, counted positive when it falls.

Counter-ions that a name gives are not always drawn.

Here are results for four compounds from patent US12403144B2, “HECT E3 ligase inhibitors and uses thereof” (IFOM FONDAZIONE ISTITUTO FIRC DI ONCOLOGIA MOLECOLARE, priority 2019, dated 2025).

For the assay, the target named is T1, untagged HECT of NEDD4 wild-type (WT) (E3 ligase) (Homo sapiens, UniProt P46934).
T1 construct: untagged HECT of NEDD4 wild-type (WT) (E3 ligase); made in house
T1 sequence (P46934 519-900 isoform P46934-4 limits assumed): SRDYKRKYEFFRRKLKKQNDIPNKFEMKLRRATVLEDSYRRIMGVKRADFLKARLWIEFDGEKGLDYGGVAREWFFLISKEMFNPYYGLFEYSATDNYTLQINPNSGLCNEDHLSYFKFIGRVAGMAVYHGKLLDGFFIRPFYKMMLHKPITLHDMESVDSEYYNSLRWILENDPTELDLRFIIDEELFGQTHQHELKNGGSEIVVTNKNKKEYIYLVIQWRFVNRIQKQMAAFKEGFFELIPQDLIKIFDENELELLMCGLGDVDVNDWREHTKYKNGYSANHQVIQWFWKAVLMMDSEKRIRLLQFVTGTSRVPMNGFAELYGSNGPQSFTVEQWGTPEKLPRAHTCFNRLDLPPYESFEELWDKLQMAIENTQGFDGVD
The assay can be described thus: In vitro ubiquitination assay TR-FRET based (self-ubiquitination of NEDD4). The class given is biochemical. The conditions noted are these: at 11 μM; pre-incubated for 1 hour; AUC of 120 minutes kinetic; read-out: percentages of inhibition (NEDD4). In a few lines: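 Mix of E1, His-UBE2D3 and untagged NEDD4 HECT (final 30, 350, 50 nM) with Eu-cryptate/Cy5/unlabelled ubiquitin in pH 7.6 Tris buffer, compounds (100–0.005 μM dilution series) pre-incubated 1 h, then started with ATP. 665/620 nm TR-FRET followed 120 min; % inhibition from AUC versus DMSO, no-ATP background.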
Take `CCOC(=O)/C=C/CNCCCN1c2ccccc2C(=O)N(C)c2ccc(Cl)cc21` [Compound 28, Ethyl (E)-4-{[3-(7-chloro-10-methyl-11-oxo-10,11-dihydro-5H-dibenzo[b,e][1,4]diazepin-5-yl)propyl]amino}but-2-enoate maleate]: the inhibition at 11 µM was more than 50%.
Then `O=C(O)/C=C/CNCCCN1c2ccccc2CCc2ccc(Cl)cc21` [Compound 16, (E)-4-[3-(3-chloro-10,11-dihydro-5H-dibenzo[b,f]azepin-5-yl)propylamino]but-2-enoic acid 2,2,2-trifluoroacetate], with less than 30%; and `CCOC(=O)/C=C/CN(CCCCN1c2ccccc2CCc2ccc(Cl)cc21)C(C)C` [Compound 65, Ethyl (E)-4-{[4-(3-chloro-10,11-dihydro-dibenzo[b,f]azepin-5-yl)butyl]-isopropyl-amino}but-2-enoate maleate], with more than 50%.
Then `C#CCOC(=O)/C=C/CNCCCCN1c2ccccc2CCc2ccc(Cl)cc21` [Compound 91, Prop-2-yn-1-yl (E)-4-[4-(3-chloro-10,11-dihydro-5H-dibenzo[b,f]azepin-5-yl)butylamino]but-2-enoate maleate], with more than 50%.
